Data on ten molecules can be found in patent publication US8940742B2, “Heterocyclic compounds and uses thereof” (Infinity Pharmaceuticals, Inc., priority 2012, dated 2015).

Where only a bound is given, the exact number is not on record here.

The subject of data set [1] is NZB/W F1 mice. The settings on record: NZB/W model, profilactic and therapeutic; cited from earlier work.
Data set [2] has as its system lupus symptoms. The settings on record: B6.Sle1z.Sle3z model; cited from earlier work.
For data set [3] the following is noted: reference compound, 5 μM; cited from earlier work.
For data set [4] the following is noted: PBS pH 7.4, 37° C., 24 hours, 5 μM; cited from earlier work.
In data set [5] the test system is p190 transduced leukemic cells. The settings on record: about 70 mg/kg twice daily; cited from earlier work.
In data set [6] the target is T1, Raw264.7 p110 γ (Mus musculus, UniProt Q9JHG7).
T1 construct: reduction of phospho-AKT in stimulated RAW 264.7 cells; endogenous in cells; host or cells: RAW264.7 macrophages
In words: Raw264.7 p110 γ cellular assay (phospho-AKT). Format: cell-based. The conditions noted are these: serum-starved RAW264.7 cells stimulated with C5a. From the text:
(b) PI3K-γ Selective Assay
Briefly, serum-starved PAW264.7 cells are stimulated with a known GPCR agonist C5a. […] Cells can be treated with test compounds prior to, simultaneously with, or subsequent to the stimulation by C5a. RAW 264.7 cells respond to the complement component fragment C5a through activation of the C5a receptor, and the C5a receptor activates macrophages and induces cell migration.

The target of data set [7] is RAJI p110 δ (Homo sapiens, UniProt O00329). Briefly: RAJI p110 δ cellular assay (phospho-AKT).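 Further: potency based on lowered phosphorylated AKT in RAJI cells, as a readout of PI3K-δ dependent B-cell receptor signaling.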
Excerpt: (a) PI3K-δ Selective Assay
Reduction of phospho-AKT is indicative of compounds that may inhibit B-cell proliferation and function in certain diseases.
For data set [8], the target named is T2, PI3K δ (Homo sapiens, UniProt O00329).
T2 construct: purchased Millipore
Briefly: PI3-Kinase Promega ADP-Glo Max assay. It is filed as biochemical. The conditions noted are these: 20 nM kinase, 3 mM ATP, 500 uM diC8-PtdInsP. The method in brief: (§1)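 Human class I PI3K (20 nM α or δ, 40 nM β) pre-incubated 15 min with compound in HEPES pH 7.4 buffer with MgCl2, then reacted 2 h at room temperature with 3 mM ATP and 500 uM diC8-PtdInsP. ADP measured by ADP-Glo Max luminescence; % inhibition fitted to 4-parameter logistic for IC50.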
In general terms: ADP-Glo turns the ADP formed in a reaction into a luminescent signal.

The target in data set [9] is T3, PI3K β (Homo sapiens, UniProt P42338).
T3 construct: purchased Millipore
In words: PI3-Kinase Promega ADP-Glo Max assay. Format: biochemical. The settings on record: 40 nM kinase, 3 mM ATP, 500 uM diC8-PtdInsP. In a few lines: as §1

The target in data set [10] is T4, PI3K α (Homo sapiens, UniProt P42336).
T4 construct: purchased Millipore
Briefly: PI3-Kinase Promega ADP-Glo Max assay. The settings on record: 20 nM kinase, 3 mM ATP, 500 uM diC8-PtdInsP. It is filed as biochemical. In a few lines:
as §1

The target of data set [11] is T5, PI3K γ (Homo sapiens, UniProt P48736).
T5 construct: purchased Millipore
Briefly: PI3-Kinase Promega ADP-Glo Max assay. It is filed as biochemical. The conditions noted are these: 40 nM kinase, 3 mM ATP, 500 uM diC8-PtdInsP. In a few lines:
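Human class I PI3K reactions ran 2 hours at room temperature, followed by stop solution (40 min) and detection mix (1 hour) before luminescence reading.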

T5 sequence (P48736 whole entry): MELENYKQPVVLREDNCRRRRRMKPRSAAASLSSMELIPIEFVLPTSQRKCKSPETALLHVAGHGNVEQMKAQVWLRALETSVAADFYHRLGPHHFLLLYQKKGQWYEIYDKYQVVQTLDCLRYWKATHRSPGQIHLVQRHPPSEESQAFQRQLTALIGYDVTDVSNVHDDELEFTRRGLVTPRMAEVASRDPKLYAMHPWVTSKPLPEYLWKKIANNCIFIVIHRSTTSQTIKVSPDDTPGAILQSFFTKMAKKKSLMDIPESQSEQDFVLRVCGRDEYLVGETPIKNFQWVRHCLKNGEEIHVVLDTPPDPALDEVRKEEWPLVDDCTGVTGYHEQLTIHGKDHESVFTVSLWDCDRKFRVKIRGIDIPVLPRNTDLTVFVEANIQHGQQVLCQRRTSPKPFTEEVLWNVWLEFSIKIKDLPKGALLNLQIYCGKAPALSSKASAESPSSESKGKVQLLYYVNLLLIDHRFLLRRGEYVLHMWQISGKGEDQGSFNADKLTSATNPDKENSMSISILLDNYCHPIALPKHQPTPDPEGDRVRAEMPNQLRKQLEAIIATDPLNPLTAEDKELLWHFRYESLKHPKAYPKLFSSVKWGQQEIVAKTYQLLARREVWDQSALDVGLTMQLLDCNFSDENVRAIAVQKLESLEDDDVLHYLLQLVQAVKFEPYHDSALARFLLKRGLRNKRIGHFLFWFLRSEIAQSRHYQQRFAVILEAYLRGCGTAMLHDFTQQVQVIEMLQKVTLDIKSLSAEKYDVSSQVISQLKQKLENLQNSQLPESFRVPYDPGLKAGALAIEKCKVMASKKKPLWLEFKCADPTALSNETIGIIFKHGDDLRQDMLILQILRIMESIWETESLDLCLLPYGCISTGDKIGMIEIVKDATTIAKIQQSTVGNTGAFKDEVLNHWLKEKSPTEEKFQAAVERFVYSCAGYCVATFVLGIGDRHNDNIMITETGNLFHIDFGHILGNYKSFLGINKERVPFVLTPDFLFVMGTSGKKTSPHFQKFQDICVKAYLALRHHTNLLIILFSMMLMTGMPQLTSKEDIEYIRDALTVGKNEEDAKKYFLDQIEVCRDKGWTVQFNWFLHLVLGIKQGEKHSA
RAJI p110 δ, sequence (O00329 whole entry): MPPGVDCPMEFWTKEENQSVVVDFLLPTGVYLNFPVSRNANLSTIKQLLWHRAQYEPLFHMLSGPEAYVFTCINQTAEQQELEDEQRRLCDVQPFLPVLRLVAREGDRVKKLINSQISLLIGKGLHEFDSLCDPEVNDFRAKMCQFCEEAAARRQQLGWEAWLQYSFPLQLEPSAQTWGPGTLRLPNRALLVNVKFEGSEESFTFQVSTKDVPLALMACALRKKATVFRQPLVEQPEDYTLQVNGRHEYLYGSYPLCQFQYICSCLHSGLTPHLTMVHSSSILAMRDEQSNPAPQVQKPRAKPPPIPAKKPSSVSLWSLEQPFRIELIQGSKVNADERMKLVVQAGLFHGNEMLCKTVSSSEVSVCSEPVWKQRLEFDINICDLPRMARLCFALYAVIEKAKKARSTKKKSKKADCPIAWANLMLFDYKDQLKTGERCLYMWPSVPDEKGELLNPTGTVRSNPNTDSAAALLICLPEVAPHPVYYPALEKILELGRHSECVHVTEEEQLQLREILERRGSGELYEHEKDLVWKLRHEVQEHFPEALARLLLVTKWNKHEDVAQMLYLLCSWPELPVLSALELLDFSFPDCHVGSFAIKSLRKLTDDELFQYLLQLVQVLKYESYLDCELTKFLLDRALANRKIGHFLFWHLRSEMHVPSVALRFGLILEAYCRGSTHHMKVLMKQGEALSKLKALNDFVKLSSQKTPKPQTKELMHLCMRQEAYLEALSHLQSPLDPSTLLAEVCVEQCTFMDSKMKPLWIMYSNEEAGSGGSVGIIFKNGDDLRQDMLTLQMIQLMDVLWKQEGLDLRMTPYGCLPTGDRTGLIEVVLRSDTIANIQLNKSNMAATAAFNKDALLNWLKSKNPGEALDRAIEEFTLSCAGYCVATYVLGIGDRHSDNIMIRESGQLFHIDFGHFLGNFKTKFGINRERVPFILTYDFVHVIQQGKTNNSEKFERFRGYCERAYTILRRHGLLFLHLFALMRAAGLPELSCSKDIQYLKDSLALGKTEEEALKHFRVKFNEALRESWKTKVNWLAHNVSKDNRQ
RAJI p110 δ, sequence (P27986 whole entry partner): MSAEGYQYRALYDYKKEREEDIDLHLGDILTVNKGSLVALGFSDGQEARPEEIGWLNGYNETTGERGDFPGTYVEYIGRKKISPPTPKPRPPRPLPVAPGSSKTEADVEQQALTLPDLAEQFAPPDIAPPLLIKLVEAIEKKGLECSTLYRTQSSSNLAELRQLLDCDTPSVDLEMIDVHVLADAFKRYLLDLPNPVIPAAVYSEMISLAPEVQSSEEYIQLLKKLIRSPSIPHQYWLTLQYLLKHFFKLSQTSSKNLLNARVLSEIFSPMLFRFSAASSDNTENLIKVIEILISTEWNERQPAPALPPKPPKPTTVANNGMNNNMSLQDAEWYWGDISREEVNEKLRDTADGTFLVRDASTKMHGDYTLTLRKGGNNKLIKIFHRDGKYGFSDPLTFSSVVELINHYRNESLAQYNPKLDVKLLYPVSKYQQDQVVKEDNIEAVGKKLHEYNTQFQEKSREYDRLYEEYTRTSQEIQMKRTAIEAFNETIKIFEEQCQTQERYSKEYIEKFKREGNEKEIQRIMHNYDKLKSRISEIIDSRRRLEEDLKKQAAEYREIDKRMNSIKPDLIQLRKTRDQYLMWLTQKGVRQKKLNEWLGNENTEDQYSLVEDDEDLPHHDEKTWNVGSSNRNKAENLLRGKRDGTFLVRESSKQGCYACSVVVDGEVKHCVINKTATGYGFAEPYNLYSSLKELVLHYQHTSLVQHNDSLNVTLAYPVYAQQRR
T2 sequence (O00329 whole entry): as the sequence (O00329 whole entry) above
T2 sequence (P27986 whole entry partner): as the sequence (P27986 whole entry partner) above
T1 sequence (Q9JHG7 whole entry): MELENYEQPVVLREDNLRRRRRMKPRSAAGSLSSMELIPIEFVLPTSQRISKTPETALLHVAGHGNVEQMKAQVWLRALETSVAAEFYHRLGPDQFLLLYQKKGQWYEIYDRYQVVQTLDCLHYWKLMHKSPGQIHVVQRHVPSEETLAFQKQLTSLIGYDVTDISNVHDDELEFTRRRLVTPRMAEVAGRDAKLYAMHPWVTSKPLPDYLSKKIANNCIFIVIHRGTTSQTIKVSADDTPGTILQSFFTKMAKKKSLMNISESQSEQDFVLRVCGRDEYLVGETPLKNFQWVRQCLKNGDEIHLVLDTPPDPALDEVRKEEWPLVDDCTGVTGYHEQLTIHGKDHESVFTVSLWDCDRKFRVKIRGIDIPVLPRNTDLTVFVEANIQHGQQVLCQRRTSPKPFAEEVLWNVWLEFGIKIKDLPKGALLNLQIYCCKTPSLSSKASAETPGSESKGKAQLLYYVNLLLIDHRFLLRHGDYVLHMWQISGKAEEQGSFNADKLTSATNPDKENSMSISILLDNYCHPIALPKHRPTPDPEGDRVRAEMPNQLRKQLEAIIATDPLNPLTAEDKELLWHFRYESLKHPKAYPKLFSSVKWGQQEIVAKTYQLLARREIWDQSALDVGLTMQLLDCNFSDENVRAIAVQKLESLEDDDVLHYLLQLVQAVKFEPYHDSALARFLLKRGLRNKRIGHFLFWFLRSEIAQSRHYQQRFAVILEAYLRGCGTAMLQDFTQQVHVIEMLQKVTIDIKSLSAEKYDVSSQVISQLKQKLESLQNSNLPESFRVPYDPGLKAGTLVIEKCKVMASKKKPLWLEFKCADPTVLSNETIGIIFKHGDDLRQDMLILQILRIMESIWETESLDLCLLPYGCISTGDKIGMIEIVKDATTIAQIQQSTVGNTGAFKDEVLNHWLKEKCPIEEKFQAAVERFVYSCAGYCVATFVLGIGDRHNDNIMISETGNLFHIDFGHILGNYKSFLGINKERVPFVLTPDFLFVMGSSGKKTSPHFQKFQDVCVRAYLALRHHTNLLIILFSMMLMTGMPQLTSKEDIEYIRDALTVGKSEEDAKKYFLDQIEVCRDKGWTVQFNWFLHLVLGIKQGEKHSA

As to `CC(C)C[C@H](NC(=O)[C@H](Cc1ccccc1)NC(=O)c1cnccn1)B(O)O` [Bortezimib], in data set [1], the blocking disease entry was “effective at blocking disease”.

Consider `CO[C@H]1C[C@@H]2CC[C@@H](C)[C@@](O)(O2)C(=O)C(=O)N2CCCC[C@H]2C(=O)O[C@H]([C@H](C)C[C@@H]2CC[C@@H](OCCO)[C@H](OC)C2)CC(=O)[C@H](C)/C=C(\C)[C@@H](O)[C@@H](OC)C(=O)[C@H](C)C[C@H](C)/C=C/C=C/C=C/1C` [RAD001, everolimus], for which the lupus symptoms entry in [2] was “ameliorate lupus symptoms”.

In the case of `CC(C)[N+](C)(CCOC(=O)C1c2ccccc2Oc2ccccc21)C(C)C` [propantheline], the plasma stability entry in data set [3] was “intermediate plasma stability”.

As to `O=C(O)CCCc1ccc(N(CCCl)CCCl)cc1` [chlorambucil], the chemical stability result in data set [4] is recorded as “largely hydrolyzed over the course of 24 hours”.

`Cc1ccc(NC(=O)c2ccc(CN3CCN(C)CC3)cc2)cc1Nc1nccc(-c2cccnc2)n1` [imatinib]: the leukemogenesis entry in data set [5] is on record as “delay but not cure leukemogenesis”.

Regarding `CCCOc1cc(N)ccc1C(=O)OCCN(CC)CC` [propoxycaine], the plasma stability result in data set [3] was “low plasma stability”.

Usually IC50 stands for the midpoint of a concentration-inhibition curve. Low values mean greater potency, high ones weaker potency. As for `C[C@H](NC(=O)c1c(N)nn2cccnc12)c1cc2cccc(C#CCNS(C)(=O)=O)c2c(=O)n1-c1ccccc1` [Compound 187], the 50% inhibitory concentration (IC50) was less than 100 nM in data set [6]; 100 to 1000 nM in [7]; 1000 to 10000 nM in data set [8]; 1000 to 10000 nM in data set [9]; 1000 to 10000 nM in data set [10]; 100 to 1000 nM in [11].

For the molecule `C[C@H](NC(=O)c1c(N)nn2cccnc12)c1cc2cccc(C#CCNC(=O)C3CCC(=O)C3)c2c(=O)n1-c1ccccc1` (stereo partly drawn) [Compound 162], the IC50 was less than 100 nM in [6]; less than 100 nM in [7]; 1000 to 10000 nM in data set [8]; 1000 to 10000 nM in data set [9]; 100 to 1000 nM in data set [10]; less than 100 nM in data set [11].

Take `C[C@H](NC(=O)c1nc(-c2cccc(NS(C)(=O)=O)c2)cnc1N)c1cc2cccc(Cl)c2c(=O)n1C` [Compound 183]: the IC50 in data set [6] was less than 100 nM; in [7] it was less than 100 nM; in data set [8], 100 to 1000 nM; in data set [9] it was less than 100 nM; in data set [10], 100 to 1000 nM; in data set [11] it was less than 100 nM.

As to `CNc1cccc2cc([C@H](C)NC(=O)c3c(N)nn4cccnc34)n(-c3ccccc3)c(=O)c12` [Compound 266], the IC50 in data set [6] was less than 100 nM; in data set [7] it was 100 to 1000 nM; in data set [8] it was greater than 10000 nM; in [9] it was greater than 10000 nM; in data set [10], 1000 to 10000 nM; in data set [11], 1000 to 10000 nM.
